Assay results taken from patent publication US8748426B2, “Inhibitors of diacylglycerol acyl transferase” (Piramal Enterprises Limited, priority 2009, dated 2014).

What follows are molecules tested against T1, hDGAT1 (Homo sapiens, UniProt O75907) (assay: In-vitro DGAT1 assay (14C oleoyl CoA, hDGAT1 microsomes from Sf9 cells)). Settings: at 1 μM.
T1 sequence (O75907 1-488): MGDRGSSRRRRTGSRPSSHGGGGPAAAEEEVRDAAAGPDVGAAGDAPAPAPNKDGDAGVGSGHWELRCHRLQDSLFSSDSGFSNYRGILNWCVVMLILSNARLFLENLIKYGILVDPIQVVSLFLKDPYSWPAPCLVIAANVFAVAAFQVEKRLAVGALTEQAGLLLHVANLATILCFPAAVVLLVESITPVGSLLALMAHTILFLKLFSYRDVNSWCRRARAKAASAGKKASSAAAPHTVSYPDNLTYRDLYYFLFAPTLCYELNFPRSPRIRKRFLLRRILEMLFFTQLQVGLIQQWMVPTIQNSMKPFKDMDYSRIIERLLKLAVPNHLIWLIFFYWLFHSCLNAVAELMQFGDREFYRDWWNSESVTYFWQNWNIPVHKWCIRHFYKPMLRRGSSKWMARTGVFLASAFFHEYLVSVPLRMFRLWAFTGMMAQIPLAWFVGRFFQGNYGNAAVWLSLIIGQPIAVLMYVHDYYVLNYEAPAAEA

SMILES	% Inhibition of hDGAT1
O=C(Nc1ccc(-c2ccc3c(c2)C(=O)N(C24C[C@@H]5C[C@@H](CC(C(=O)O)(C5)C2)C4)C3)cc1)c1ccc(Cl)cc1 [Example 569, (1r,3s,5R,7S)-3-(6-(4-(4-Chlorobenzamido)phenyl)-1-oxoisoindolin-2-yl)adamantane-1-carboxylic acid]	+ (10-50% Inhibition)

Same assay, conditions: read-out: % Inhibition of hDGAT1

SMILES	inhibition at 1 µM
CC(C)[C@@H](C(=O)O)N1Cc2ccc(-c3ccc(NC(=O)c4ccc(-c5nccs5)cc4)cc3)cc2C1=O [Example 647, (S)-3-Methyl-2-(1-oxo-6-(4-(4-(thiazol-2-yl)benzamido)phenyl)isoindolin-2-yl)butanoic acid]	> 50%
CCCCOc1ccc(C(=O)Nc2ccc(-c3ccc4c(c3)C(=O)N([C@H](C(=O)O)C(C)C)C4)c(OC)c2)cc1 [Example 460, (S)-2-(6-(4-(4-Butoxybenzamido)-2-methoxyphenyl)-1-oxoisoindolin-2-yl)-3-methylbutanoic acid]	10 to 50%
Cc1ccc(NC(=O)Nc2ccc(-c3ccc4c(c3)C(=O)N([C@H](C(=O)O)C(C)C)C4)c(C(F)(F)F)c2)cc1C [Example 422, (S)-2-(6-(4-(3-(3,4-Dimethylphenyl)ureido)-2-(trifluoromethyl)phenyl)-1-oxoisoindolin-2-yl)-3-methylbutanoic acid]	10 to 50%
CC(C)[C@@H](C(=O)O)N1Cc2ccc(-c3ccc(NC(=O)c4cccc(Cl)c4)cc3)cc2C1=O [Example 108, (S)-2-(6-(4-(3-Chlorobenzamido)phenyl)-1-oxoisoindolin-2-yl)-3-methylbutanoic acid]	> 50%
CC(C)[C@@H](C(=O)O)N1Cc2cc(-c3ccc(NC(=O)c4ccc(F)cc4)cc3)ccc2C1=O [Example 307, (S)-2-(5-(4-(4-Fluorobenzamido)phenyl)-1-oxoisoindolin-2-yl)-3-methylbutanoic acid]	10 to 50%
O=C(O)CCCN1Cc2cc(-c3ccc(NC(=O)Nc4cccc(C(F)(F)F)c4)cc3)ccc2C1=O [Example 376, 4-(1-Oxo-5-(4-(3-(3-(trifluoromethyl)phenyl)ureido)phenyl)isoindolin-2-yl)butanoic acid]	10 to 50%
CC(C)[C@@H](C(=O)O)N1Cc2ccc(-c3ccc(NC(=O)Nc4ccc5c(c4)CCC5)cc3C(F)(F)F)cc2C1=O [Example 420, (S)-2-(6-(4-(3-(2,3-Dihydro-1H-inden-5-yl)ureido)-2-(trifluoromethyl)phenyl)-1-oxoisoindolin-2-yl)-3-methylbutanoic acid]	10 to 50%
CC(C)[C@@H](C(=O)O)N1Cc2cc(-c3ccc(NC(=O)NC4CCCCC4)cc3)ccc2C1=O [Example 235, (S)-2-(5-(4-(3-Cyclohexylureido)phenyl)-1-oxoisoindolin-2-yl)-3-methyl butanoic acid]	10 to 50%
CC(C)[C@@H](C(=O)O)N1Cc2ccc(-c3ccc(NS(=O)(=O)c4ccc(C(F)(F)F)cc4)cc3)cc2C1=O [Example 92, (S)-3-Methyl-2-(1-oxo-6-(4-(4-(trifluoromethyl)phenylsulfonamido)phenyl)isoindolin-2-yl)butanoic acid]	10 to 50%
O=C(O)CCN1Cc2cc(-c3ccc(NC(=O)Nc4cccc(C(F)(F)F)c4)cc3)ccc2C1=O [Example 379, 3-(1-Oxo-5-(4-(3-(3-(trifluoromethyl)phenyl)ureido)phenyl)isoindolin-2-yl)propanoic acid]	10 to 50%
CCCCCCc1ccc(C(=O)Nc2ccc(-c3ccc4c(c3)C(=O)N([C@H](C(=O)O)C(C)C)C4)cc2)cc1 [Example 182, (S)-2-(6-(4-(4-Hexylbenzamido)phenyl)-1-oxoisoindolin-2-yl)-3-methylbutanoic acid]	> 50%
CC(C)[C@@H](C(=O)O)N1Cc2ccc(-c3ccc(NC(=O)c4ccc5ccccc5c4)cc3C(F)(F)F)cc2C1=O [Example 428, (S)-2-(6-(4-(2-Naphthamido)-2-(trifluoromethyl)phenyl)-1-oxoisoindolin-2-yl)-3-methylbutanoic acid]	10 to 50%
Cc1ccc(C(=O)Nc2ccc(-c3ccc4c(c3)C(=O)N(C3(C(=O)O)CCC3)C4)cc2)cc1 [Example 582, 1-(6-(4-(4-Methylbenzamido)phenyl)-1-oxoisoindolin-2-yl)cyclobutane carboxylic acid]	> 50%
CC(C)[C@@H](C(=O)O)N1Cc2ccc(-c3ccc(NS(=O)(=O)Cc4ccccc4)cc3)cc2C1=O [Example 94, (S)-3-Methyl-2-(1-oxo-6-(4-(phenylmethylsulfonamido)phenyl)isoindolin-2-yl)butanoic acid]	10 to 50%
CC(C)(C(=O)O)N1Cc2ccc(-c3ccc(NC(=O)c4ccc(Cl)cc4)cc3)cc2C1=O [Example 521, 2-(6-(4-(4-Chlorobenzamido)phenyl)-1-oxoisoindolin-2-yl)-2-methylpropanoic acid]	> 50%
CC(C)[C@@H](C(=O)O)N1Cc2ccc(-c3ccc(NC(=O)c4cccnc4)cc3)cc2C1=O [Example 207, (S)-3-Methyl-2-(6-(4-(nicotinamido)phenyl)-1-oxoisoindolin-2-yl)butanoic acid]	> 50%

SMILES	inhibition at 1 µM
CCCCCCCc1ccc(C(=O)Nc2ccc(-c3ccc4c(c3)C(=O)N([C@H](C(=O)O)C(C)C)C4)cc2)cc1 [Example 184, (S)-2-(6-(4-(4-Heptylbenzamido)phenyl)-1-oxoisoindolin-2-yl)-3-methylbutanoic acid]	> 50%
COc1cc(C(=O)Nc2ccc(-c3ccc4c(c3)C(=O)N([C@H](C(=O)O)C(C)C)C4)cc2)cc(OC)c1OC [Example 144, (S)-3-Methyl-2-(1-oxo-6-(4-(3,4,5-trimethoxybenzamido)phenyl)isoindolin-2-yl)butanoic acid]	> 50%
Cc1cccc(NC(=O)Nc2ccc(-c3ccc4c(c3)C(=O)N([C@H](C(=O)O)C(C)C)C4)cc2)c1 [Example 22, (S)-3-Methyl-2-(1-oxo-6-(4-(3-m-tolylureido)phenyl)isoindolin-2-yl)butanoic acid]	10 to 50%
CC(C)[C@@H](C(=O)O)N1Cc2ccc(-c3ccc(NC(=O)c4ccc(F)cc4F)cc3)cc2C1=O [Example 110, (S)-2-(6-(4-(2,4-Difluorobenzamido)phenyl)-1-oxoisoindolin-2-yl)-3-methyl butanoic acid]	> 50%
CC(C)(C)c1ccc(C(=O)Nc2ccc(-c3ccc4c(c3)C(=O)N(C3(C(=O)O)CCCC3)C4)cc2)cc1 [Example 531, 1-(6-(4-(4-(tert-Butyl)benzamido)phenyl)-1-oxoisoindolin-2-yl)cyclopentane carboxylic acid]	> 50%
CC(C)[C@@H](C(=O)O)N1Cc2cc(-c3ccc(NC(=S)Nc4cccc(Cl)c4)cc3)ccc2C1=O [Example 267, (S)-2-(5-(4-(3-(3-Chlorophenyl)thioureido)phenyl)-1-oxoisoindolin-2-yl)-3-methylbutanoic acid]	10 to 50%
CC(C)[C@@H](C(=O)O)N1Cc2ccc(-c3ccc(NC(=O)Nc4ccc(Oc5ccccc5)cc4)cc3)cc2C1=O [Example 50, (S)-3-Methyl-2-(1-oxo-6-(4-(3-(4-phenoxyphenyl)ureido)phenyl)isoindolin-2-yl)butanoic acid]	> 50%
COc1ccc(NC(=S)Nc2ccc(-c3ccc4c(c3)C(=O)N([C@H](C(=O)O)C(C)C)C4)cc2)cc1 [Example 58, (S)-2-(6-(4-(3-(4-Methoxyphenyl)thioureido)phenyl)-1-oxoisoindolin-2-yl)-3-methylbutanoic acid]	> 50%
CC(C)[C@@H](C(=O)O)N1Cc2ccc(-c3ccc(NC(=O)c4ccc5c(c4)C(C)(C)CCC5(C)C)cc3)cc2C1=O [Example 176, (S)-3-Methyl-2-(1-oxo-6-(4-(5,5,8,8-tetramethyl-5,6,7,8-tetrahydronaphthalene-2-carboxamido)phenyl)isoindolin-2-yl)butanoic acid]	> 50%
CC(C)[C@@H](C(=O)O)N1Cc2cc(-c3ccc(NC(=O)c4ccc(C(C)(C)C)cc4)cc3)ccc2C1=O [Example 323, (S)-2-(5-(4-(4-tert-Butylbenzamido)phenyl)-1-oxoisoindolin-2-yl)-3-methyl butanoic acid]	10 to 50%
CCCCCc1ccc(C(=O)Nc2ccc(-c3ccc4c(c3)CN([C@H](C(=O)O)C(C)C)C4=O)cc2)cc1 [Example 325, (S)-3-Methyl-2-(1-oxo-5-(4-(4-pentylbenzamido)phenyl)isoindolin-2-yl)butanoic acid]	10 to 50%
O=C(Nc1ccc(-c2ccc3c(c2)C(=O)N(C2(C(=O)O)CCC2)C3)cc1)c1ccc(C(F)(F)F)cc1 [Example 580, 1-(1-Oxo-6-(4-(4-(trifluoromethyl)benzamido)phenyl)isoindolin-2-yl)cyclo butane carboxylic acid]	> 50%
CC(C)[C@@H](C(=O)O)N1Cc2ccc(-c3ccc(NC(=O)Nc4cccc(F)c4)cc3)cc2C1=O [Example 14, (S)-2-(6-(4-(3-(3-Fluorophenyl)ureido)phenyl)-1-oxoisoindolin-2-yl)-3-methyl butanoic acid]	10 to 50%
CC(C)[C@@H](C(=O)O)N1Cc2ccc(-c3ccc(NC(=O)Cc4ccccc4)cc3)cc2C1=O [Example 659, (S)-3-Methyl-2-(1-oxo-6-(4-(2-phenylacetamido)phenyl)isoindolin-2-yl)butanoic acid]	10 to 50%
CC(C)[C@@H](C(=O)O)N1Cc2cc(-c3ccc(NC(=O)Nc4cccc(F)c4)cc3)ccc2C1=O [Example 229, (S)-2-(5-(4-(3-(3-Fluorophenyl)ureido)phenyl)-1-oxoisoindolin-2-yl)-3-methyl butanoic acid]	> 50%
